# Measured values taken from ChEMBL document CHEMBL3351799, “Bioavailable pyrrolo-benzo-1,4-diazines as Na(v)1.7 sodium channel blockers for the treatment of pain” (Bioorg Med Chem Lett, 2014).
# Tests used:
# [1] = Drug level in Sprague-Dawley rat brain after 6 hrs; format: ADME, tissue-based; settings: read-out: Drug uptake
# in vivo [2] = settings: Sprague-Dawley, rat, plasma
# in vivo [3] = settings: Sprague-Dawley, rat, brain/plasma
concentration at 6 h [1],Kp at 6 h (in vivo [3]),Structure (SMILES),AUC at 6 h (in vivo [2])
257 ng/g,0.2,COc1ccc2c(c1)NC1(CCN(C(=O)c3ccc(OC)c(N(C)C)c3)CC1)c1cccn1-2,20.3 µM·h
–,–,COc1ccc2c(c1)NC1(CCN(C(=O)c3cccc4ncccc34)CC1)c1cccn1-2,16.2 µM·h
